This is an account of results in patent US7842823B2, “Fluorogenic probes for reactive oxygen species” (The Regents of the University of California, priority 2005, dated 2010).

A short description of data set [1]: Fluorescence response to various ROS (H2O2 selectivity). Conditions: 20 mM HEPES, pH 7, 25° C.; for higher response for H2O2 over .OH: .OH from Fe2+ with H2O2; for higher response for H2O2 over .OtBu: .OtBu from Fe2+ with TBHP; for higher response for H2O2 over NO: NO delivered using SNOC. Here is the method: FIG. 7 is the fluorescence response of 5 μM PF1 to various ROS (10 mM O2^−, 100 μM for all other ROS). .OH and .Ot-Bu were generated by reaction of Fe^2+ with H2O2 or tert-butyl hydroperoxide (TBHP), respectively. NO was delivered using S-nitrosocysteine (SNOC). Spectra were acquired in 20 mM HEPES, pH 7, and all data were obtained after incubation with the appropriate ROS at 25° C. for 1 h. Collected emission was integrated between 460 and 700 nm (λexc=450 nm).
FIG. 8 is the fluorescence response of 5 μM PR1 to various ROS (10 mM O2^−, 100 μM for all other ROS). .OH and .O^tBu were generated by reaction of Fe^2+ with H2O2 or tert-butyl hydroperoxide (TBHP), respectively. NO was delivered using S-nitrosocysteine (SNOC). Spectra were acquired in 20 mM HEPES, pH 7, and all data were obtained after incubation with the appropriate ROS at 25° C. for 30 min. Collected emission was integrated between 570 and 800 nm (λexc=560 nm).
FIG. 9 is the fluorescence response of 10 μM PX1 to various ROS (10 mM O2^−, 100 μM for all other ROS). .OH and .Ot-Bu were generated by reaction of Fe^2+ with H2O2 or tert-butyl hydroperoxide (TBHP), respectively. NO was delivered using S-nitrosocysteine (SNOC). Spectra were acquired in 20 mM HEPES, pH 7, and all data were obtained after incubation with the appropriate ROS at 25° C. for 1 h. Collected emission was integrated between 370 and 600 nm (λexc=350 nm).
(§1) Millipore water was used to prepare all aqueous solutions. All spectroscopic measurements were performed in 20 mM HEPES buffer, pH 7. Absorption spectra were recorded using a Varian Cary 50 spectrophotometer (Walnut Creek, Calif.). Fluorescence spectra were recorded using a Photon Technology International Quanta Master 4 L-format scanning spectrofluorometer (Lawrenceville, N.J.) equipped with an LPS-220B 75-W xenon lamp and power supply, A-1010B lamp housing with integrated igniter, switchable 814 photon-counting/analog photomultiplier detection unit, and MD5020 motor driver. Samples for absorption and fluorescence measurements were contained in 1-cm×1-cm quartz cuvettes (1.4- or 3.5-mL volume, Starna, Atascadero, Calif.).
FIG. 7, FIG. 8 and FIG. 9 compare the relative reactivities of boronate-based PF1, PR1, and PX1, respectively, toward various ROS.

Data set [2] can be described thus: Spectroscopic properties under simulated physiological conditions. The class given is physicochemical. Conditions: 20 mM HEPES buffer; for fluorescence of unreacted probe: pH 7, before H2O2. Here is the method: as §1
(§2) The Peroxysensor reagents were evaluated under simulated physiological conditions (20 mM HEPES buffer, pH 7). […] FIG. 4, FIG. 5 and FIG. 6 show the fluorescence responses of PF1, PR1, and PX1, respectively, to H2O2.

The subject of data set [3] is embryonic rat hippocampal neurons (E18). The data set is described as follows: Fluorescence imaging of H2O2 in primary hippocampal neurons. The data set is classed as cell-based. Here is the method:
Hippocampal primary cultures were prepared from embryonic day 18 (E18) rat embryos according to a previously reported protocol. Briefly, hippocampi were dissociated by treatment with trypsin for 20 min at 37° C. followed by washing. The neuronal cells were plated on glass coverslips (Carolina Biological, Burlington, N.C.) coated with poly-L-lysine (50 μg/ml, Sigma) and cultured in neurobasal medium supplemented with 2 mM Glutamax and 2% B-27 (Invitrogen). After 10 days in vitro, the cultures were washed with PBS, incubated with the probe in PBS, and imaged.
Finally, the successful use of the Peroxysensor probes for monitoring changes in intracellular H2O2 concentrations in mammalian cell lines using either confocal or two-photon microscopy led us to evaluate their utility in primary culture systems. […] Control neurons without PF1 and/or H2O2 treatment show no detectable fluorescence enhancements. These experiments confirm that PF1 can be used in living neurons to detect oxidative stress events.

Data set [4] deals with HEK cells. The data set is described as follows: Confocal fluorescence imaging of H2O2 in live HEK cells. The settings on record: for cell viability during imaging: HEK cells after probe incubation and H2O2 treatment; for intracellular background fluorescence of the unreacted probe: live HEK cells, 5-10 μM probe, 5-10 min at 25° C., before H2O2; for intracellular fluorescence change upon addition of H2O2: probe-loaded live HEK cells, 10-100 μM H2O2. Here is the method: (a) Fluorescence image of HEK cells incubated with 5 μM PF1 for 5 min at 25° C. (b) Fluorescence image of PF1-stained HEK cells treated with 100 μM H2O2 for 11 min at 25° C. Excitation was provided at 488 nm, and emission was collected in a window from 505 to 580 nm. Scale bar=27 μm.
(a) Fluorescence image of HEK cells incubated with 10 μM PR1 for 10 min at 25° C. (b) Fluorescence image of PR1-stained HEK cells treated with 100 μM H2O2 for 30 min at 25° C. Excitation was provided at 543 nm, and emission was collected in a window from 548 to 644 nm. Scale bar=18 μm.
HEK 293T cells were cultured in Dulbecco's Modified Eagle Medium (DMEM, Invitrogen, Carlsbad, Calif.) supplemented with 10% Fetal Bovine Serum (FBS, Invitrogen), glutamine (2 mM), and penicillin/streptomycin (50 μg/ml, Invitrogen). One day before imaging, cells were passed and plated on 18-mm glass coverslips coated with poly-L-lysine (50 μg/ml, Sigma, St. Louis, Mo.). Immediately before the experiments, cells were washed with PBS buffer, incubated with the probe in PBS, and imaged.
Confocal fluorescence imaging was performed with a Zeiss LSM510 META laser scanning microscope containing an Axioplan 2 MOT upright microscope and a 40× water-immersion objective lens. Excitation of PF1-loaded cells at 488 nm was carried out with an argon ion laser, and emission was collected in a window from 505 nm to 580 nm using a META detection system. Excitation of PR1-loaded cells at 543 nm was carried out with a HeNe laser, and emission was collected in a window from 548 nm to 644 nm using a META detector. PF1 or PR1 were incubated with live cell samples for 5 to 10 min. Addition of H2O2 (10 to 100 μM) to cell samples was performed directly on the microscope stage by bath application to the media.
The family of red-, green-, and blue-fluorescent reagents for the optical detection of H2O2 in living biological samples.

The conditions of data set [5]: comparison probe; cited from earlier work.
The subject of data set [6] is HEK cells. The data set is described as follows: Two-photon fluorescence imaging of H2O2 in live HEK cells. The class given is cell-based. The protocol: Two-photon excitation was provided at 704 nm, and emission was collected in a window from 420 to 500 nm. Scale bar=18 μm
Two-photon fluorescence imaging of PX1 was carried out using an inverted Zeiss LSM510 Axiovert 200M microscope with a NeoFLUAR 40x/1.3 NA oil-immersion objective lens. Samples were excited by 704-nm pulses from a mode-locked Ti:Sapphire laser (Tsunami, SpectraPhysics, 120-150 fs pulse width, 80 MHz repetition rate). The emission light was filtered with a 80-nm wide bandpass filter centered at 460 nm (460BP40, Chroma) and detected with the non-descanned detector (NDD) of the LSM510.
Alternative methods were explored for applying the blue-fluorescent PX1 reporter toward intracellular H2O2 detection, reasoning that its short ultraviolet excitation maximum (˜350 nm) would promote interfering absorbance, scattering, and background autofluorescence from native cellular species. […] Whereas one-photon fluorescence microscopy uses a single photon to excite a fluorophore into its excited state, two-photon fluorescence microscopy uses two photons of lower energy light to generate a fluorophore excited state. […] Control cells without probe give the same fluorescence response, establishing that the observed background signal is from endogenous cellular species.

Data set [7] can be described thus: Fluorescence response of the Peroxysensor probes to H2O2 in buffer. The settings on record: 20 mM HEPES buffer, pH 7; H2O2 addition. The protocol:
as §1, §2

Take `CC1(C)OB(c2ccc3c(c2)Oc2cc(B4OC(C)(C)C(C)(C)O4)ccc2C32OC(=O)c3ccccc32)OC1(C)C` [PF1, 3′,6′-Bis(pinacolatoboron)fluoran]: in data set [1] (100 μM ROS), the “higher response for H2O2 over .OH” value is over 3 fold and the “higher response for H2O2 over .OtBu” value was over 15 fold. The “fluorescence of unreacted probe” value in data set [2] is “non-fluorescent”. Besides, in data set [3] (10 μM probe, 5 min at 25° C.), the “background fluorescence of the unreacted probe” value is on record as “negligible background fluorescence”. The “intracellular fluorescence change under simulated oxidative stress” value in data set [3] (300 μM H2O2 for 30 min at 25° C.) was “notable increases in intracellular fluorescence”. Further, in data set [4], the “cell viability during imaging” value is listed as “cells are viable throughout the imaging experiments”, the “intracellular background fluorescence of the unreacted probe” value (“intracellular background fluorescence” for short) is reported as “negligible intracellular background fluorescence” and the “intracellular fluorescence change upon addition of H2O2” value was “prompt increases in intracellular green fluorescence”.
Take `CC1(C)OB(c2ccc3c(c2)Oc2cc(B4OC(C)(C)C(C)(C)O4)ccc2N3)OC1(C)C` [PR1, 3,7-Bis(pinacolatoboron)phenoxazine]: in data set [1] (100 μM ROS), the “higher response for H2O2 over .OH” value is on record as over 200 fold, the “higher response for H2O2 over .OtBu” value is over 200 fold and the “higher response for H2O2 over NO” value is recorded as over 200 fold. Moreover, the “higher response for H2O2 over O2−” value in data set [1] (10 mM O2−, 100 μM H2O2) is over 1000 fold. Also, in data set [2], the “fluorescence of unreacted probe” value is “non-fluorescent”. Besides, in data set [4], the “cell viability during imaging” value is recorded as “cells are viable throughout the experiments”, the “intracellular background fluorescence” value is “virtually no background fluorescence” and the “intracellular fluorescence change upon addition of H2O2” value is reported as “Striking increases in intracellular red fluorescence”.
With `O=C(O)c1ccccc1C1c2cc(Cl)c(O)cc2Oc2cc(O)c(Cl)cc21` [DCFH, 2′,7′-dichlorodihydrofluorescein], in data set [5], the “fluorescence increase by reaction with .OH or peroxynitrite (ONOO−)” value is reported as “ca. 7000 fold”, the “fluorescence increase upon addition of H2O2” value is reported as 190 fold, the “fluorescence increase upon light-induced autoxidation” value is 2000 fold and the “fluorescence increase with NO” value is 150 fold. For the same compound, in data set [5], the “fluorescence increase with O2−” value is on record as 67 fold.
Consider `CC1(C)OB(c2ccc3c(=O)c4ccc(B5OC(C)(C)C(C)(C)O5)cc4oc3c2)OC1(C)C` [PX1, 3,6-Bis(pinacolatoboron)xanthone], for which the “intracellular background fluorescence” value in data set [6] (live HEK cells, 10 μM probe, 2-3 min at 25° C., two-photon excitation 704 nm) is listed as “minimal intracellular background fluorescence”. Moreover, in data set [6] (probe-stained HEK cells, 100 μM H2O2, two-photon excitation 704 nm), the “intracellular fluorescence change upon addition of H2O2” value is “Prompt increases in intracellular blue fluorescence”. Also, in data set [7], the “increase in integrated fluorescence intensity (dynamic range) upon reaction with H2O2” value is 52 fold. In addition, in data set [1] (100 μM ROS), the “higher response for H2O2 over NO” value is on record as “ca. 6 fold” and the “higher response for H2O2 over tert-butyl hydroperoxide (TBHP)” value is recorded as over 100 fold. In data set [2] (pH 7), the “emission maximum of unreacted probe” value is reported as 400 nm and the ultraviolet absorption maximum is recorded as 350 nm. Also, the “fluorescence of unreacted probe” value in data set [2] is “weak fluorescence”. Further, the “extinction coefficient ε at absorption maximum” value in data set [2] (pH 7, 350 nm) is 4700 M⁻¹ cm⁻¹.
